From US4044134A, “Fused pyrimidin-4(3H)-ones as antiallergy agents” (Pfizer Inc., priority 1976, dated 1977) come the findings set out here.

Counter-ions that a name gives are not always drawn. Like-named read-outs stand apart in the source and are kept apart here.

This assay deals with passive cutaneous anaphylaxis (PCA) reaction. In words: passive cutaneous anaphylaxis (PCA) test, i.v. or oral administration. Type of assay: in vivo, male Charles River Wistar rats. As to conditions: for inhibition in vivo at 3 mg/kg / inhibition in vivo at 60 mg/kg / inhibition in vivo at 0.03 mg/kg / inhibition in vivo at 0.3 mg/kg / inhibition in vivo at 1 mg/kg / inhibition in vivo at 0.1 mg/kg / inhibition in vivo at 10 mg/kg / inhibition in vivo at 30 mg/kg / inhibition in vivo at 0.003 mg/kg / inhibition in vivo at 100 mg/kg: Rattus norvegicus, read-out: degree (%) of protection, PCA test. On the procedure: In the PCA test, normal animals are injected intradermally (i.d.) with antibodies contained in serum obtained from actively sensitized animals. The animals are then challenged intravenously with antigen mixed with a dye such as Evans' Blue. The increased capillary-permeability caused by the antigen-antibody reaction causes the dye to leak from the site of the antibody injection. The test animals are then asphyxiated and the intensity of the reaction determined by measuring the diameter and intensity of the blue coloration on the inner surface of the animals skin. […] The ability of agents to interfere with PCA reactions is measured in male Charles River Wistar rats, 170-210 g. […] Hyperimmune antisera to hen egg albumin is prepared according to Orange, et al., J. Exptl. […] Forty-eight hours prior to antigen challenge the reaginic antisera is injected intradermally (i.d.) into the shaved skin of a normal rat's back; 5 hours before challenge the hyperimmune antisera is similarly injected; 5 hours later, at a third site, 60 mcg. histamine dihydrochloride is injected i.d. as a check for antihistaminic and unspecific types of blockage; the compounds of the instant invention or saline are then administered i.v. and immediately followed by 2.5 mg. Evan's blue dye and 5 mg. egg albumin in saline. In the case of oral administration Evan's blue dye and egg albumen are given five minutes after administration of the drug. Thirty minutes later the animals are asphyxiated using chloroform and the skin of the back removed and reversed for observation. A score is assigned each injection site equal to the product of the diameter of the site in mm. and a grade of 0.1, 0.5, 1, 2, 3 or 4 proportional to intensity of dye coloration. The scores for a given injection site are summed for each group of 8 animals and compared to the saline treated controls. The difference is expressed as percent blockade due to the compound employed. […] Disodium cromoglycate, a commerial antiallergy agent, is included for comparison. [drawing 3]

With `CCOC(=O)Cc1nc2cc3ccccc3cc2c(=O)[nH]1` [2-carbethoxymethylbenzo[g]quinazolin-4(3H)-one, reference compound], the inhibition in vivo at 3 mg/kg (iv, I.V., 3 mg/kg) stood at 49%.

As for `Cc1nc2cc3ccccc3cc2c(=O)[nH]1` [2-methylbenzo[g]quinazolin-4(3H)-one, reference compound], under “rat, in vivo”, the “activity in the PCA test” value is “little or no activity”.

Take `CCc1nc2nc3cc(OC)c(OC)cc3cc2c(=O)[nH]1` [C2 H5/H/H/OCH3/OCH3/H, 2-Ethyl-7,8-Dimethoxypyrimidin[4,5-b]quinolin-4(SH)-One]: the inhibition in vivo at 3 mg/kg (iv, I.V., 3 mg/kg) came out at 56%. In addition, the inhibition in vivo at 60 mg/kg (Oral) came out at 0%.

For `COc1cc2cc3c(=O)[nH]c(C)nc3nc2cc1OC` [CH3/H/H/OCH3/OCH3/H, 2-Methyl-7,8-Dimethoxypyrimido[4,5-b]Quinolin-4(3H)-One], for the setting “iv, I.V.”, the inhibition in vivo at 0.03 mg/kg is 11% and the inhibition in vivo at 0.3 mg/kg came to 45%. Moreover, under “iv, I.V., 3 mg/kg”, the inhibition in vivo at 3 mg/kg came out at 77%. The inhibition in vivo at 1 mg/kg (Oral) was determined as 43%. Besides, the inhibition in vivo at 3 mg/kg (Oral, 3 mg/kg) came to 67%.

Take `COc1cc2cc3c(=O)[nH]c(C(C)=O)nc3nc2cc1OC` [COCH3/H/H/OCH3/OCH3/H, 2-Acetyl-7,8-Dimethoxypyrimido[4,5-b]quinoline-4(3H)-One]: where the note is “iv, I.V.”, the inhibition in vivo at 0.1 mg/kg was determined as 19% and the inhibition in vivo at 1 mg/kg was found to be 21%. Further, the inhibition in vivo at 3 mg/kg (iv, I.V., 3 mg/kg) stood at 100%. Besides, the inhibition in vivo at 10 mg/kg (Oral, 10 mg/kg) came out at 15%.

Regarding `NC(=O)c1nc2nc3ccccc3cc2c(=O)[nH]1` [CONH2/H/H/H/H/H, Pyrimido[4,5-b]Quinolin-4(3H)-One-2-Carboxamide], the inhibition in vivo at 3 mg/kg (iv, I.V., 3 mg/kg) stood at 98%. Also, for the setting “Oral”, the inhibition in vivo at 60 mg/kg was determined as 23%.

As for `COc1cc2cc3c(=O)[nH]c(C(N)=O)nc3nc2cc1OC` [CONH2/H/H/OCH3/OCH3/H, 7,8-Dimethoxypyrimido[4,5-b]Quinolin-4(3H)-One-2-Carboxamide], for the setting “iv, I.V., 3 mg/kg”, the inhibition in vivo at 3 mg/kg was 87%. For the same compound, the inhibition in vivo at 30 mg/kg (Oral) turned out to be 4%.

For the compound `COc1cc2cc3c(=O)[nH]c(C(=O)NO)nc3nc2cc1OC` [CONHOH/H/H/OCH3/OCH3/H, 7,8-Dimethoxypyrimido-[4,5-b]-Quinolin-4(3H)-One-2-Hydroxamic Acid], the inhibition in vivo at 3 mg/kg (iv, I.V., 3 mg/kg) was 92%. For the same compound, the inhibition in vivo at 60 mg/kg (Oral) is 3%.

Consider `CCCCOC(=O)c1nc2nc3ccccc3cc2c(=O)[nH]1` [COO(n-C4 H9)/H/H/H/H/H, n-Butylpyrimido[4,5-b]Quinolin-4(3H)-One-2-carboxylate], for which, for the setting “iv, I.V.”, the inhibition in vivo at 0.03 mg/kg worked out at 6% and the inhibition in vivo at 1 mg/kg was 90%. Besides, the inhibition in vivo at 30 mg/kg (Oral) was 50%.

Take `CCCCOC(=O)c1nc2nc3cc(OC)c(OC)cc3cc2c(=O)[nH]1` [COO(n-C4 H9)/H/H/OCH3/OCH3/H]: for the setting “iv, I.V., 0.003 mg/kg”, the inhibition in vivo at 0.003 mg/kg turned out to be 64%. Moreover, for the setting “iv, I.V.”, the inhibition in vivo at 0.03 mg/kg was 100% and the inhibition in vivo at 0.3 mg/kg is 94%. In addition, the inhibition in vivo at 3 mg/kg (iv, I.V., 3 mg/kg) was 90%. Also, the inhibition in vivo at 30 mg/kg (Oral) came to 81%.

`CCCCOC(=O)c1nc2nc3cc(OC)c(OC(C)=O)cc3cc2c(=O)[nH]1` [COO-(n-C4 H9)/H/H/CH3 COO/OCH3/H]: the inhibition in vivo at 3 mg/kg (iv, I.V., 3 mg/kg) is 100%. Further, where the note is “Oral, 10 mg/kg”, the inhibition in vivo at 10 mg/kg was 36%.

For `CCCCOC(=O)c1nc2nc3cc(OC)c(OCc4ccccc4)cc3cc2c(=O)[nH]1` [COO-(n-C4 H9)/H/H/OC7 H7/OCH3/H], for the setting “iv, I.V.”, the inhibition in vivo at 0.03 mg/kg amounted to 57%. Besides, for the setting “iv, I.V., 3 mg/kg”, the inhibition in vivo at 3 mg/kg is 100%. Moreover, the inhibition in vivo at 10 mg/kg (Oral, 10 mg/kg) was determined as 12%.

Consider `CCCCOC(=O)c1nc2nc3cc(OC)c(O)cc3cc2c(=O)[nH]1` [COO-(n-C4 H9)/H/H/OH/OCH3/H, n-butyl 7-hydroxy-8-methoxypyrimido[4,5-b]quinolin-4(3H)one-2-carboxylate trifluoroacetate], for which the inhibition in vivo at 0.003 mg/kg (iv, I.V., 0.003 mg/kg) is 52%. Besides, the inhibition in vivo at 3 mg/kg (iv, I.V., 3 mg/kg) is 100%. Further, where the note is “Oral, 10 mg/kg”, the inhibition in vivo at 10 mg/kg came to 67%.

Take `CCOC(=O)c1nc2nc3ccccc3c(-c3ccccc3)c2c(=O)[nH]1` [COOC2 H5/C6 H5/H/H/H/H, Ethyl 5-Phenylpyrimido[4,5-b]Quinolin-4(3H)-One-2-Carboxylate]: for the setting “iv, I.V.”, the inhibition in vivo at 0.1 mg/kg was 9%, the inhibition in vivo at 0.3 mg/kg was determined as 51% and the inhibition in vivo at 1 mg/kg turned out to be 95%. The inhibition in vivo at 3 mg/kg (iv, I.V., 3 mg/kg) was 100%. Also, for the setting “Oral”, the inhibition in vivo at 1 mg/kg came out at 0%. For the same compound, the inhibition in vivo at 10 mg/kg (Oral, 10 mg/kg) was determined as 0%.

Take `CCOC(=O)c1nc2nc3cccc(Cl)c3cc2c(=O)[nH]1` [COOC2 H5/H/Cl/H/H/H, Ethyl 6-Chloropyrimido[4,5-b]Quinolin-4(3H)-One-2-Carboxylate]: under “iv, I.V.”, the inhibition in vivo at 0.03 mg/kg is 11% and the inhibition in vivo at 1 mg/kg is 96%. In addition, the inhibition in vivo at 30 mg/kg (Oral) was 57%.

As for `CCOC(=O)c1nc2nc3cc4c(cc3cc2c(=O)[nH]1)OCO4` [COOC2 H5/H/H/--O--CH2 --O--, Ethyl 7,8-Methylenedioxypyrimido[4,5-b]Quinolin-4(3H)-One-2-Carboxylate], under “iv, I.V.”, the inhibition in vivo at 0.1 mg/kg turned out to be 0% and the inhibition in vivo at 1 mg/kg was determined as 70%. Moreover, the inhibition in vivo at 30 mg/kg (Oral) came out at 0%.

Take `CCOC(=O)c1nc2nc3cc4c(cc3cc2c(=O)[nH]1)OCCO4` [COOC2 H5/H/H/--O--CH2 CH2 --O--/H]: the inhibition in vivo at 1 mg/kg (iv, I.V.) was 64%. In addition, the inhibition in vivo at 3 mg/kg (iv, I.V., 3 mg/kg) worked out at 72%.

Consider `CCOC(=O)c1nc2nc3cc(OC)c(OC(C)=O)cc3cc2c(=O)[nH]1` [COOC2 H5/H/H/CH3 COO/OCH3/H, Ethyl 7-Acetoxy-8-Methoxypyrimido[4,5-b]Quinolin-4(3H)One-2-Carboxylate p-Toluenesulfonate], for which, under “iv”, the inhibition in vivo at 0.003 mg/kg was 53% and the inhibition in vivo at 3 mg/kg is 100%. For the same compound, where the note is “po”, the inhibition in vivo at 10 mg/kg came out at 40%.

Regarding `CCOC(=O)c1nc2nc3ccc(Cl)cc3cc2c(=O)[nH]1` [COOC2 H5/H/H/Cl/H/H, Ethyl 7-Chloropyrimido[4,5-b]quinolin-4(3H)-one-2-carboxylate], where the note is “iv, I.V.”, the inhibition in vivo at 0.03 mg/kg was found to be 0% and the inhibition in vivo at 1 mg/kg is 70%.

With `CCOC(=O)c1nc2nc3ccc(F)cc3cc2c(=O)[nH]1` [COOC2 H5/H/H/F/H/H, Ethyl 7-fluoropyrimido[4,5-b]quinolin-4(3H)-one-2-carboxylate], under “iv, I.V.”, the inhibition in vivo at 0.03 mg/kg was determined as 0% and the inhibition in vivo at 1 mg/kg was 90%. Under “iv, I.V., 3 mg/kg”, the inhibition in vivo at 3 mg/kg came out at 82%. Also, under “Oral”, the inhibition in vivo at 30 mg/kg came out at 17%.

As for `CCOC(=O)c1nc2nc3cc(F)ccc3cc2c(=O)[nH]1` [COOC2 H5/H/H/H/F/H, Ethyl 8-fluoropyrimido[4,5-b]quinolin-4(3H)-one-2-carboxylate], for the setting “iv, I.V.”, the inhibition in vivo at 0.1 mg/kg was 2%.

For the compound `CCOC(=O)c1nc2cc3ccccc3cc2c(=O)[nH]1` [COOC2 H5/H/H/H/H (Formula II), ethyl Benzo[g]Quinazolin-4(3H)-One-2-Carboxylate], the inhibition in vivo at 10 mg/kg (iv, I.V., 10 mg/kg) was 27%. Also, the inhibition in vivo at 100 mg/kg (Oral) was 38%.

As for `CCOC(=O)c1nc2nc3ccccc3cc2c(=O)[nH]1` [COOC2 H5/H/H/H/H/H, Ethyl Pyrimido[4,5-b]Quinolin-4-(3H)-One-2-Carboxylate], under “iv, I.V.”, the inhibition in vivo at 0.03 mg/kg is 30%, the inhibition in vivo at 0.1 mg/kg was 45%, the inhibition in vivo at 0.3 mg/kg came to 82% and the inhibition in vivo at 1 mg/kg is 100%. In addition, the inhibition in vivo at 3 mg/kg (iv, I.V., 3 mg/kg) is 99%. In addition, the inhibition in vivo at 10 mg/kg (iv, I.V., 10 mg/kg) was found to be 100%. Further, for the setting “Oral”, the inhibition in vivo at 1 mg/kg is 12%, the inhibition in vivo at 30 mg/kg came out at 72%, the inhibition in vivo at 60 mg/kg was determined as 100% and the inhibition in vivo at 100 mg/kg turned out to be 80%. Moreover, the inhibition in vivo at 3 mg/kg (Oral, 3 mg/kg) was found to be 69%.

As for `CCOC(=O)c1nc2nc3cc(OC)ccc3cc2c(=O)[nH]1` [COOC2 H5/H/H/H/OCH3/H], under “iv, I.V.”, the inhibition in vivo at 0.03 mg/kg came out at 0% and the inhibition in vivo at 0.3 mg/kg turned out to be 20%. In addition, the inhibition in vivo at 3 mg/kg (iv, I.V., 3 mg/kg) was determined as 90%. The inhibition in vivo at 10 mg/kg (Oral, 10 mg/kg) turned out to be 43%.
